Reference: ChEMBL document CHEMBL5260845, “Flavone-based arylamides as potential anticancers: Design, synthesis and in vitro cell-based/cell-free evaluations” (2020)
Active and inactive are the calls of the source. The calls are words filed in the database; no cut-off is given here.

Tests used:
MDA-MB-231 = assay: Antiproliferative activity against human MDA-MB-231 cells assessed as inhibition of cell growth at 10 uM by SRB assay relative to control; format: functional
UACC-62 = assay: Antiproliferative activity against human UACC-62 cells assessed as cell growth inhibition at 10 uM by SRB assay relative to control; format: functional
DU-145 = assay: Antiproliferative activity against human DU-145 cells assessed as inhibition of cell growth at 10 uM by SRB assay relative to control; format: functional
LOX IMVI = assay: Antiproliferative activity against human LOX IMVI cells assessed as cell growth inhibition at 10 uM by SRB assay relative to control; format: functional
SF-539 = assay: Antiproliferative activity against human SF-539 cells assessed as cell growth inhibition at 10 uM by SRB assay relative to control; format: functional
MDA-MB-435 = assay: Antiproliferative activity against human MDA-MB-435 cells assessed as cell growth inhibition at 10 uM by SRB assay relative to control; format: functional
OVCAR-4 = assay: Antiproliferative activity against human OVCAR-4 cells assessed as cell growth inhibition at 10 uM by SRB assay relative to control; format: functional
M14 = assay: Antiproliferative activity against human M14 cells assessed as cell growth inhibition at 10 uM by SRB assay relative to control; format: functional
Malme-3M = assay: Antiproliferative activity against human Malme-3M cells assessed as cell growth inhibition at 10 uM by SRB assay relative to control; format: functional
NCI-H226 = assay: Antiproliferative activity against human NCI-H226 cells assessed as cell growth inhibition at 10 uM by SRB assay; format: functional
NCI-H23 = assay: Antiproliferative activity against human NCI-H23 cells assessed as cell growth inhibition at 10 uM by SRB assay; format: functional
SF-295 [1] = assay: Antiproliferative activity against human SF-295 cells assessed as cell growth inhibition at 10 uM by SRB assay; format: functional, cell-based
NCI-H522 = assay: Antiproliferative activity against human NCI-H522 cells assessed as cell growth inhibition at 10 uM by SRB assay; format: functional, cell-based
SF-295 [2] = assay: Antiproliferative activity against human SF-295 cells assessed as cell growth inhibition at 10 uM by SRB assay relative to control; format: functional
HOP-62 [3] = assay: Antiproliferative activity against human HOP-62 cells assessed as cell growth inhibition at 10 uM by SRB assay; format: functional, cell-based
SR = assay: Antiproliferative activity against human SR cells assessed as cell growth inhibition at 10 uM by SRB assay; format: functional, cell-based
OVCAR-3 = assay: Antiproliferative activity against human OVCAR-3 cells assessed as cell growth inhibition at 10 uM by SRB assay relative to control; format: functional; settings: pooled result: one value given for 2 cell lines, strains, targets or settings
RXF 393 = assay: Antiproliferative activity against human RXF 393 cells assessed as inhibition of cell growth at 10 uM by SRB assay relative to control; format: functional
SK-MEL-2 = assay: Antiproliferative activity against human SK-MEL-2 cells assessed as cell growth inhibition at 10 uM by SRB assay relative to control; format: functional
OVCAR-8 = assay: Antiproliferative activity against human OVCAR-8 cells assessed as cell growth inhibition at 10 uM by SRB assay relative to control; format: functional
K562 = assay: Antiproliferative activity against human K562 cells assessed as cell growth inhibition at 10 uM by SRB assay; format: functional, cell-based
CCRF-CEM = assay: Antiproliferative activity against human CCRF-CEM cells assessed as cell growth inhibition at 10 uM by SRB assay; format: functional, cell-based
SF-268 = assay: Antiproliferative activity against human SF-268 cells assessed as cell growth inhibition at 10 uM by SRB assay relative to control; format: functional
SK-MEL-5 = assay: Antiproliferative activity against human SK-MEL-5 cells assessed as cell growth inhibition at 10 uM by SRB assay relative to control; format: functional
Hs-578T = assay: Antiproliferative activity against human Hs-578T cells assessed as inhibition of cell growth at 10 uM by SRB assay relative to control; format: functional
U-251 = assay: Antiproliferative activity against human U-251 cells assessed as cell growth inhibition at 10 uM by SRB assay relative to control; format: functional
ACHN = assay: Antiproliferative activity against human ACHN cells assessed as inhibition of cell growth at 10 uM by SRB assay relative to control; format: functional; settings: pooled result: one value given for 2 cell lines, strains, targets or settings
786-0 = assay: Antiproliferative activity against human 786-0 cells assessed as inhibition of cell growth at 10 uM by SRB assay relative to control; format: functional
SNB-75 = assay: Antiproliferative activity against human SNB-75 cells assessed as cell growth inhibition at 10 uM by SRB assay relative to control; format: functional
SNB-19 = assay: Antiproliferative activity against human SNB-19 cells assessed as cell growth inhibition at 10 uM by SRB assay relative to control; format: functional
RPMI-8226 [4] = assay: Antiproliferative activity against human RPMI-8226 cells assessed as cell growth inhibition at 10 uM by SRB assay; format: functional, cell-based
NCI-H460 [5] = assay: Antiproliferative activity against human NCI-H460 cells assessed as cell growth inhibition at 10 uM by SRB assay; format: functional, cell-based
SK-MEL-28 = assay: Antiproliferative activity against human SK-MEL-28 cells assessed as cell growth inhibition at 10 uM by SRB assay relative to control; format: functional
HCT-116 [6] = assay: Antiproliferative activity against human HCT-116 cells assessed as cell growth inhibition at 10 uM by SRB assay relative to control; format: functional
SN12C = assay: Antiproliferative activity against human SN12C cells assessed as inhibition of cell growth at 10 uM by SRB assay relative to control; format: functional
A549 = assay: Antiproliferative activity against human A549 cells assessed as cell growth inhibition at 10 uM by SRB assay; format: functional, cell-based
IGROV-1 = assay: Antiproliferative activity against human IGROV-1 cells assessed as cell growth inhibition at 10 uM by SRB assay relative to control; format: functional
UACC-257 = assay: Antiproliferative activity against human UACC-257 cells assessed as cell growth inhibition at 10 uM by SRB assay relative to control; format: functional
A498 = assay: Antiproliferative activity against human A498 cells assessed as inhibition of cell growth at 10 uM by SRB assay relative to control; format: functional
MOLT-4 = assay: Antiproliferative activity against human MOLT-4 cells assessed as cell growth inhibition at 10 uM by SRB assay; format: functional, cell-based
HOP-92 = assay: Antiproliferative activity against human HOP-92 cells assessed as cell growth inhibition at 10 uM by SRB assay; format: functional, cell-based
NCI-H322M = assay: Antiproliferative activity against human NCI-H322M cells assessed as cell growth inhibition at 10 uM by SRB assay; format: functional, cell-based
EKVX = assay: Antiproliferative activity against human EKVX cells assessed as cell growth inhibition at 10 uM by SRB assay; format: functional
HL-60 = assay: Antiproliferative activity against human HL-60 cells assessed as cell growth inhibition at 10 uM by SRB assay; format: functional, cell-based
RPMI-8226 [7] = assay: Antiproliferative activity against human RPMI-8226 cells assessed as cell growth inhibition at 10 uM by SRB assay relative to control; format: functional
SW-620 = assay: Antiproliferative activity against human SW620 cells assessed as cell growth inhibition at 10 uM by SRB assay; format: functional, cell-based
Ovarian cancer cell line = assay: Antiproliferative activity against human ovarian cancer cells assessed as cell growth inhibition at 10 uM by SRB assay relative to control; format: functional
NCI-H460 [8] = assay: Antiproliferative activity against human NCI-H460 cells assessed as cell growth inhibition at 10 uM by SRB assay relative to control; format: functional
Lung cancer cell line = assay: Antiproliferative activity against human lung cancer cells assessed as cell growth inhibition at 10 uM by SRB assay relative to control; format: functional
Prostatic carcinoma cell = assay: Antiproliferative activity against human prostatic carcinoma cells assessed as cell growth inhibition at 10 uM by SRB assay relative to control; format: functional
COLO 205 = assay: Antiproliferative activity against human COLO 205 cells assessed as cell growth inhibition at 10 uM by SRB assay; format: functional, cell-based
HCC 2998 = assay: Antiproliferative activity against human HCC 2998 cells assessed as cell growth inhibition at 10 uM by SRB assay; format: functional, cell-based
KM12 = assay: Antiproliferative activity against human KM12 cells assessed as cell growth inhibition at 10 uM by SRB assay; format: functional, cell-based
HT-29 = assay: Antiproliferative activity against human HT-29 cells assessed as cell growth inhibition at 10 uM by SRB assay; format: functional, cell-based
HCT-15 = assay: Antiproliferative activity against human HCT-15 cells assessed as cell growth inhibition at 10 uM by SRB assay; format: functional, cell-based
HOP-62 [9] = assay: Antiproliferative activity against human HOP-62 cells assessed as cell growth inhibition at 10 uM by SRB assay relative to control; format: functional
HCT-116 [10] = assay: Antiproliferative activity against human HCT-116 cells assessed as cell growth inhibition at 10 uM by SRB assay; format: functional, cell-based
PC-3 = assay: Antiproliferative activity against human PC-3 cells assessed as inhibition of cell growth at 10 uM by SRB assay relative to control; format: functional
BT-549 = assay: Antiproliferative activity against triple negative human BT-549 cells assessed as inhibition of cell growth at 10 uM by SRB assay relative to control; format: functional
T47D = assay: Antiproliferative activity against human T47D cells assessed as inhibition of cell growth at 10 uM by SRB assay relative to control; format: functional
MCF7 = assay: Antiproliferative activity against estrogen receptor positive human MCF7 cells assessed as inhibition of cell growth at 10 uM by SRB assay relative to control; format: functional

SMILES: COc1cc2oc(-c3cccc(NC(=O)c4ccc(Br)cc4)c3)cc(=O)c2c(OC)c1OC
- inhibition at 10 µM (MDA-MB-231): 73.4%
- inhibition at 10 µM (UACC-62): 39.1%
- inhibition at 10 µM (DU-145): > 50%
- inhibition at 10 µM (LOX IMVI): 50.8%
- inhibition at 10 µM (SF-539): 47.1%
- inhibition at 10 µM (MDA-MB-435): 50.8%
- inhibition at 10 µM (OVCAR-4): 52.9%
- inhibition at 10 µM (M14): 50.8%
- inhibition at 10 µM (Malme-3M): 39.1%
- inhibition (NCI-H226): Active
- inhibition at 10 µM (NCI-H226): < 50%
- inhibition (NCI-H23): Active
- inhibition at 10 µM (NCI-H23): < 50%
- inhibition (SF-295 [1]): Active
- inhibition (NCI-H522): Active
- inhibition at 10 µM (SF-295 [2]): > 50%
- inhibition (HOP-62 [3]): Active
- inhibition (SR): Active
- inhibition at 10 µM (OVCAR-3): 52.9%
- inhibition at 10 µM (RXF 393): 63.6%
- inhibition at 10 µM (SK-MEL-2; Homo sapiens, SK-MEL-2, dose 10 µM): ≤ 46%
- inhibition (INH) (SK-MEL-2; dose 10 µM): 39.07%
- inhibition at 10 µM (OVCAR-8): 52.9%
- inhibition (K562): Active
- inhibition (CCRF-CEM): Active
- inhibition at 10 µM (SF-268): > 50%
- inhibition at 10 µM (SK-MEL-5): 50.8%
- inhibition at 10 µM (Hs-578T): 73.4%
- inhibition at 10 µM (U-251): > 50%
- inhibition at 10 µM (ACHN): 63.6%
- inhibition at 10 µM (786-0): 84%
- inhibition at 10 µM (SNB-75): > 50%
- inhibition at 10 µM (SNB-19): 41.2%
- inhibition (RPMI-8226 [4]): Active
- inhibition (NCI-H460 [5]): Active
- inhibition at 10 µM (SK-MEL-28): 50.8%
- inhibition at 10 µM (HCT-116 [6]): 84%
- inhibition at 10 µM (SN12C): 63.6%
- inhibition (A549): Active
- inhibition at 10 µM (IGROV-1): 52.9%
- inhibition at 10 µM (UACC-257): 39.1%
- inhibition at 10 µM (A498): 63.6%
- inhibition (MOLT-4): Active
- inhibition (HOP-92): Active
- inhibition (NCI-H322M): Active
- inhibition (EKVX): Active
- inhibition at 10 µM (EKVX): < 50%
- inhibition (HL-60): Active

SMILES: COc1cc2oc(-c3cccc(C(=O)Nc4ccc(C#N)cc4)c3)cc(=O)c2c(O)c1OC
- inhibition at 10 µM (UACC-62): 50.5%
- inhibition at 10 µM (DU-145): 65.8%
- inhibition at 10 µM (RPMI-8226 [7]): 82.6%
- inhibition at 10 µM (OVCAR-4): 88.3%
- inhibition at 10 µM (Malme-3M): 52.3%
- inhibition (NCI-H226): Active
- inhibition (SW-620): Active
- inhibition (NCI-H23): Active
- inhibition at 10 µM (Ovarian cancer cell line): > 50%
- inhibition at 10 µM (NCI-H460 [8]): 81.1%
- inhibition at 10 µM (OVCAR-8): 70.9%
- inhibition at 10 µM (Lung cancer cell line): > 50%
- inhibition at 10 µM (Prostatic carcinoma cell): > 50%
- inhibition at 10 µM (SK-MEL-28): 67.2%
- inhibition (A549): Active
- inhibition (COLO 205): Active
- inhibition (HCC 2998): Active
- inhibition (KM12): Active
- inhibition (HT-29): Active
- inhibition (HCT-15): Active
- inhibition at 10 µM (HOP-62 [9]): 31.8%
- inhibition (HCT-116 [10]): Active
- inhibition at 10 µM (PC-3): 92.1%

SMILES: CN(Cc1cnc2nc(N)nc(N)c2n1)c1ccc(C(=O)N[C@@H](CCC(=O)O)C(=O)O)cc1 [METHOTREXATE]
- inhibition at 10 µM (MDA-MB-231): 40.1%
- inhibition at 10 µM (BT-549): 53.1%
- inhibition at 10 µM (T47D): 53.8%
- inhibition at 10 µM (MCF7): 82.8%
